Source: patent publication US12709734B2, “Human polarised three-dimensional cellular aggregates” (CAMBRIDGE ENTERPRISE LIMITED, priority 2018, dated 2026)
Entries after “also recorded” stand apart in the source; their conditions may differ.

Assays:
[1] = test system: RUES2-GLR human gastruloids; test: Human gastruloid formation: elongation and germ layer reporter patterning after pre-treatment; type: cell-based; settings: for elongation / BRA expression of gastruloids: 24 h pre-treatment of RUES2-GLR cells in Nutristem with the named factor (Wnt3a 100 ng/ml or BMP4 50 ng/ml instead of Chiron); for SOX2 expression domain / SOX17 expression: Chiron + 10 μM SB431542 24 h pre-treatment vs Chiron only, RUES2-GLR reporter
Procedure: (§1) Before aggregation, hESCs cultured in 6-well plates were typically pretreated with 3-3.5 μM CHIR99021 (Chiron) in Nutristem for 24 h, unless otherwise stated.
For signal modulation experiments, RUES2-GLR cells were pre-treated for 1 day in Nutristem supplemented with 100 ng/ml recombinant human Wnt3a (5036-WN-010) or 50 ng/ml BMP4 (314-BP), and aggregated in E6 and ROCK inhibitor with additional supplementation as shown. Subsequent media changes were performed daily with E6 alone. To test the effect of signal modulation on gastruloid formation, RUES2-GLR cells were pre-treated in Nutristem supplemented with 3.25 μM Chiron and one of 1 μM LDN193189 (04-0074), 1 μM XAV-939 (04-0046), or 10 μM SB431542 (1614) before aggregation in E6 with 0.5 μM Chiron and ROCK inhibitor, unless otherwise stated. Subsequent media changes were performed daily with E6 alone.
An alternative, ‘dorsalised’ protocol used 3 μM Chiron, supplemented with 10 μM SB431542 Nodal inhibitor (SB431542) also in Nutristem for 24 h.
After pre-treatment, hESCs at 60-85% confluency were washed twice with PBS−/−. For detachment, 2 ml 0.5 mM EDTA in PBS−/− was applied per well and cells were incubated at 37° C., 5% CO2 for 6.5 min. The plate was then carefully tapped against a solid object to promote detachment and the suspension was pipetted up and down repeatedly (5-10−) with a P1000 to break remaining clumps into single cells.
The suspension was then transferred into a 15 ml centrifuge tube with 8 ml PBS−/− and centrifuged for 3-5 min at 1000 rpm. The supernatant was removed, cells were washed with PBS−/− and spun down again 3-5 min at 1000 rpm. Subsequently, depending on the pellet size, cells were resuspended in 500 μl to 2 ml Essential 6 (E6) medium (Gibco, life technologies) and counted using an automated cell counter (MoxiZ, Orflo). Optimal cell density should be around 1×10^6/ml. The specific number of cells optimized per cell line (400/well for RUES2-TR, 500/well for mSHEF7 and H9TV lines) were then added to E6 supplemented with 5 μM Rock Inhibitor and 3 μM Chiron. Using a multichannel pipette, cells in this suspension were plated in 40 μl per well of an ultra-low adhesion, round bottom 96-well plate (Costar, Corning Inc.). At 24 h after aggregation, 150 μl E6 were added into each well using a multichannel pipette. E6 (see Chen et al., 2011) was continuously exchanged every subsequent day by removing 150 μl per well and adding the same amount.
Human gastruloids made using the RUES2-GLR reporter line were specifically analysed for dynamic reporter expression. An in-house MATLAB script was developed to assess the dynamic fluorescent marker expression along the AP axis of human gastruloids. Widefield images of gastruloids were taken at 24 h, 48 h and 72 h and aligned along their anteroposterior axis with reference to fluorescent reporter expression. For each sample, a binary image was generated in the brightfield channel and used as a mask for all fluorescent channels and the major (length) axis was identified. Consequently, for every pixel along the length axis, the sum of intensity values of the respective channel along the width of the aggregate was divided by the width of the gastruloid at that specific point, yielding the normalized fluorescence intensity along the length of the sample. This process was then repeated for every acquired fluorescent channel. Gastruloids used for this analysis were a full set from one experimental batch, and images were only excluded from the analysis when anteroposterior alignment or binarization were unsuccessful.
In order to quantify the degree of elongation of human gastruloids, brightfield channel widefield images were imported into Fiji (Schindelin et al., 2012). The length of the longest axis was measured using the line tool, followed by the length of the perpendicular axis at the mid-point of the longest axis line. […]

[2] = test system: hESCs (RUES2-GLR, MasterShef7); test: Effect of Chiron pre-treatment on adherent hESCs (RT-qPCR, immunostaining); type: cell-based, human
Procedure: We pre-treated hESCs for 1 day in pluripotency medium supplemented with 3-3.5 μM of the Wnt signalling agonist, CHIR99021 (hereafter referred to as Chiron) before aggregation; effectively shifting the Chiron pulse to before the aggregation rather than 48 h after aggregation as is the case in mouse gastruloids (Baillie-Johnson, P., et al., 2015).
as §1
Adherent cell staining was done using 1:200 Mouse anti-CDH2 (BD Biosciences, BD10920), 1:200 Rat anti-CDH1 (Takara, M108) and 1:200 Rabbit anti-BRACHYURY (AbCam, ab209665) primary antibodies. Quantification was performed using Fiji software on the whole image (histograms) or using a line ROI through the colony (line graph).
Gene expression was analysed from adherent cells using Trizol (Ambion LifeTechnologies) according to manufacturer's instructions. Total RNA was quantified using a NanoDrop 2000C (ThermoScientific) and 5 μg was added to a reverse transcription reaction with Superscript III (Invitrogen) according to manufacturer's instructions. Resultant cDNA was quantified by qPCR with SYBRGreen (Merck) using a liquid handling robot (Qiagility, Qiagen) and analysed on a RotorGeneQ thermocycler (Qiagen). Primer sequences can be found in Supplementary Table 1. Concentration of cDNA was estimated using an in-house MAK2 analysis method.

[3] = test system: HYS01030 human induced pluripotent stem cell (iPSC) line; test: Gastruloid formation from human induced pluripotent stem cells; type: cell-based; settings: 3.5 uM Chiron 1 day before aggregation, aggregated in Chiron and ROCK inhibitor
Description: FIG. 8: Human gastruloids made from induced pluripotent stem cells. […] 6 representative examples are show. […] There is also some sign of a rosette-like or lumenised structure that expresses SOX2 in the posterior tip (arrowhead). 3 representative examples are shown.
We used a wild type hESC line (mSHEF7; REF) as well as two transgenic lines, the H9TV BRACHYURY-Venus reporter (Mendjan et al., 2014) and RUES2-GLR, the triple reporter for germ layer markers with BRACHYURY-H2B-mCerulean, SOX17-H2B-tdTomato and SOX2-mCitrine (Simunovic et al., 2018). We also used a human induced pluripotent stem cell line, known as HYS01030 (unpublished).

[4] = test system: RUES2-GLR human gastruloids; test: Tomo-sequencing of Chiron vs Chiron+SB431542 pre-treated human gastruloids; type: cell-based
Procedure: An alternative, ‘dorsalised’ protocol used 3 μM Chiron, supplemented with 10 μM SB431542 Nodal inhibitor (SB431542) also in Nutristem for 24 h. Tomo-sequencing was performed and analysed in an updated version of published methods (Junker et al., 2014; and Kruse et al., 2016). In short, gastruloids were sectioned along their AP axis, and the mRNA-content of each section was extracted using SORT-seq (Muraro et al., 2016). Paired end (75 bp) sequencing was performed on the resulting RNA-seq libraries using the Illumina Next-Seq sequencing platform. Read 1 contains the cell or section barcode and the unique molecular identifier (UMI). Read 2 contains the biological information. Reads 2 with a valid cell/section barcode were selected and mapped using STAR-2.5.3a with default parameters to the human GRCh38 genome (ENSEMBL version 93), and only reads mapping to gene bodies (exons or introns) were used for downstream analysis. Reads mapping simultaneously to an exon and to an intron were assigned to the exon. Mappabilities for the different samples range between 44% and 47%. For each cell or section, the number of transcripts was obtained as previously described […]. We refer to transcripts as unique molecules based on UMI correction. […] In each gastruloid, data was then normalized to the median number of unique transcripts per slice, and the z-score of each gene was extracted along sections. The reproducibility of AP expression pattern between different gastruloid replicates was scored for each gene using a random background model to calculate the Pearson correlation coefficient p-value. The p-value threshold to select reproducible genes was set at 0.001. […] Differential gene expression was performed by normalizing the transcripts in each section to 100,000 for all gastruloids; then pooling all sections of each gastruloid together; and finally assessing significant differentially expressed genes based on total expression using the Binomial test. An alternative, ‘dorsalised’ protocol used 3.25 μM Chiron, supplemented with 10 μM SB431542 Nodal inhibitor (SB431542) also in Nutristem for 24 h. They were then aggregated in E6 with 3 μM Chiron and ROCK inhibitor.

[5] = 120 h Chi+SB43 vs 72 h Chiron pre-treated gastruloids
[6] = Chi+SB43 vs Chi pre-treated gastruloids
[7] = Chiron + SB431542 pre-treated vs Chiron pre-treated gastruloids
[8] = of genes reproducible in either or both conditions, Chi+SB43 vs Chi

Cc1c[nH]c(-c2cnc(NCCNc3ccc(C#N)cn3)nc2-c2ccc(Cl)cc2Cl)n1 [Chiron, CHIR99021]
elongation / BRA expression of gastruloids [1]: strictly dependent on the Chiron pre-treatment
aggregates displaying an elongated morphology ([1]; 72 h after aggregation, Chiron pre-treated RUES2-GLR, average of experiments): ~ 66%
expression of NANOG ([2]; 24 h Chiron pre-treatment vs Nutristem alone, RT-qPCR, RUES2-GLR): increased expression
expression and membrane localisation of CDH1 (E-cadherin) / CDH2 (N-cadherin) ([2]; 24 h Chiron pre-treatment vs Nutristem, immunostaining of adherent colonies): switch in the expression and membrane localisation of CDH1 (E-cadherin) towards CDH2 (N-cadherin; also recorded: increase in the expression of membrane localised CDH2 (N-cadherin)
expression of mesendodermal marker genes (BRA, MIXL1, LEFTY1, LEFTY2, AXIN2, EOMES, CDX1) ([2]; 1 day Chiron pre-treatment vs pluripotency medium alone, RT-qPCR): increased expression
expression of pluripotency markers (POU5F1, SOX2) ([2]; 1 day pre-treatment with 3-3.5 μM Chiron vs pluripotency medium (Nutristem) alone, RT-qPCR): levels equivalent to cells maintained in pluripotency medium alone; also recorded: levels comparable to cells maintained in pluripotency medium alone
levels of SOX2 ([2]; 1 day pre-treatment with 3-3.5 μM Chiron vs pluripotency medium alone, RT-qPCR): slightly reduced
morphology of iPSC-derived aggregates [3]: polarised in their morphology at 72 hours

NC(=O)c1ccc(-c2nc(-c3ccc4c(c3)OCO4)c(-c3ccccn3)[nH]2)cc1 [SB431542]
genes reproducibly localised in both conditions [4, 5]: 301 genes
genes with loss of reproducible localisation [4, 5]: 509 genes
genes with novel spatial localisation acquired [4, 5]: 944 genes
expression of HOX genes (HOXC9, HOXA9, HOXC6) and SOX2 [4, 6]: up-regulation
expression of Nodal signalling components and targets [4, 6]: down-regulation
expression of cardiac development genes (TBX5, GATA6, LBX1, NKX2.5) [4, 6]: loss of many genes
expression of definitive endoderm genes (SHH, LHX1, CER1, FOXA3, SORCS2, FOXA2) [4, 6]: decrease in expression
domain-size and level of expression of SOX2 and SOX3 [4, 7]: increase in the domain-size and level of expression
expression of BRA, CYP26A1 and WNT3A in the posterior domain [4, 7]: comparable to the Chiron pre-treated human gastruloids
expression of FOXA2 [4, 7]: very little expression
expression of Node-like markers NODAL, NOTO, PITX2, DAND5 [4, 7]: no detectable expression
expression of asymmetry markers LEFTY1, LEFTY2 and anterior cardiac mesoderm markers GATA4, GATA6, HAND2 [4, 7]: little or no expression
localisation of somitogenesis-like genes (MEOX, TCF15) ([4]; Chiron + SB431542 pre-treated vs Chiron pre-treated gastruloids (central region)): become anteriorly localised
genes differentially expressed between the two treatments [4, 8]: 564 genes
proportion of genes differentially expressed between the two treatments [4, 8]: 33%
BRA expression pattern ([1]; Chiron + 10 μM SB431542 24 h pre-treatment): diffuse expression of BRA that approximated a gradient from anterior to posterior
SOX2 expression domain [1]: distinctly larger domains of SOX2 expression
SOX17 expression [1]: fewer, if any, SOX17 expressing cells
SOX2 expression domain ([1]; listed as SB43): larger, well-defined SOX2 domain at their posterior end
SOX17 expression ([1]; listed as SB43): absence of detectable SOX17 expression
elongation and polarisation of gene expression ([1]; Chiron + 10 μM SB431542 24 h pre-treatment, compared to original method): able to elongate and polarise their gene expression

B1: Wnt3a: recombinant human Wnt3a (protein, UniProt P56704 19-352, looked up)
Protein Wnt-3a: SYPIWWSLAVGPQYSSLGSQPILCASIPGLVPKQLRFCRNYVEIMPSVAEGIKIGIQECQHQFRGRRWNCTTVHDSLAIFGPVLDKATRESAFVHAIASAGVAFAVTRSCAEGTAAICGCSSRHQGSPGKGWKWGGCSEDIEFGGMVSREFADARENRPDARSAMNRHNNEAGRQAIASHMHLKCKCHGLSGSCEVKTCWWSQPDFRAIGDFLKDKYDSASEMVVEKHRESRGWVETLRPRYTYFKVPTERDLVYYEASPNFCEPNPETGSFGTRDRTCNVSSHGIDGCDLLCCGRGHNARAERRREKCRCVFHWCCYVSCQECTRVYDVHTCK
elongation / BRA expression of gastruloids [1]: insufficient to promote elongation or BRA expression

B2: BMP4: BMP4 protein used for pre-treatment, 50 ng/ml (protein, UniProt P12644 293-408, looked up)
Bone morphogenetic protein 4: SPKHHSQRARKKNKNCRRHSLYVDFSDVGWNDWIVAPPGYQAFYCHGDCPFPLADHLNSTNHAIVQTLVNSVNSSIPKACCVPTELSAISMLYLDEYDKVVLKNYQEMVVEGCGCR
elongation / BRA expression of gastruloids [1]: insufficient to promote elongation or BRA expression
